# Test results published in ChEMBL document CHEMBL3091403, “Desmethyl Macrolides: Synthesis and Evaluation of 4,8,10-Tridesmethyl Cethromycin” (2013).
# Assays:
# Assay type in all cases: functional
# Staphylococcus aureus [1] = assay: Antibacterial activity against Staphylococcus aureus ATCC 33591 harboring ribosomal ermA mutant
# Escherichia coli [2] = assay: Antibacterial activity against Escherichia coli DK/2058G harboring ribosomal A2058G mutant
# Staphylococcus aureus [3] = assay: Antibacterial activity against Staphylococcus aureus UCN14 harboring ribosomal A2058U mutant
# Escherichia coli [4] = assay: Antibacterial activity against wild-type Escherichia coli DK/pKK3535
# Escherichia coli [5] = assay: Antibacterial activity against Escherichia coli SQ171/2058G harboring ribosomal A2058G mutant
smiles,measurement,setting,value
CC[C@H]1OC(=O)[C@H](C)C(=O)C[C@@H](O[C@@H]2O[C@H](C)C[C@H](N(C)C)[C@H]2O)[C@](C)(OC/C=C/c2cnc3ccccc3c2)CCC(=O)C[C@H]2NC(=O)O[C@@]21C,MIC,Staphylococcus aureus [1],> 64 µg/mL
same,MIC,Escherichia coli [2],1 µg/mL
same,MIC,Staphylococcus aureus [3],> 256 µg/mL
same,MIC,Escherichia coli [4],2 µg/mL
same,MIC,Escherichia coli [5],> 256 µg/mL
